Measurements published in patent publication US11952346B2, “Modulators of mas-related G-protein receptor X2 and related products and methods” (Escient Pharmaceuticals, Inc., priority 2020, dated 2024).

Target: T1, human MRGPRX2 (Homo sapiens, UniProt Q96LB1)
T1 construct: expressed in transfected cells
T1 sequence (Q96LB1 1-330): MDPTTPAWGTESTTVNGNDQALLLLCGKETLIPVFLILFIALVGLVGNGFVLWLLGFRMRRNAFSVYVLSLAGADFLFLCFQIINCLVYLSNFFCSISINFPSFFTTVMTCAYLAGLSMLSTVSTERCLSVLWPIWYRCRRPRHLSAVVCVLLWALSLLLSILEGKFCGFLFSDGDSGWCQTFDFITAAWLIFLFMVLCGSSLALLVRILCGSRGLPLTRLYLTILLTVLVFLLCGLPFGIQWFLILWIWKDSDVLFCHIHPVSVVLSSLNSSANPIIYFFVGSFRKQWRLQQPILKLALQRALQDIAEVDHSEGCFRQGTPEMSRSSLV
Test: MRGPRX2 antagonist activity, IP-One HTRF assay in CHO cells expressing human MRGPRX2 versus Cortistatin-14
Type: cell-based
Conditions: not given
Protocol: CHO cells stably transfected to express human MRGPRX2 were maintained in an incubator at 37° C. with 5% CO2 and grown in F12 (HAM) media with 10% fetal bovine serum (FBS), 1% Glutamax, 1% penicillin/streptomycin, 800 μg/mL Geneticin (G418), and 300 μg/mL Hygromycin B. Cells were plated in a 384-well assay plate at 20,000 cells per well in 12 μL of Opti-MEM and kept in an incubator overnight. On the day of the assay, compounds solubilized at 10 mM in DMSO were added as a 10-point curve (30 uM final top concentration with 1:3 serial dilutions) using a Tecan D300E digital dispenser. Agonists were diluted in assay buffer (final concentrations of 5.7 mM Tris-HCl, 43 mM NaCl, 50 mM LiCI, pH=8) and 2 μL of the agonist Cortistatin-14 (CPC Scientific, catalog CORT-002) are added to each well. Final concentrations of agonists were […] Cortistatin-14. Final concentrations of DMSO were kept consistent across the plate. Plates were incubated in the dark for 1 hr at 37° C. and then for 1 hr at room temperature. IP-1 standards and HTRF detection reagents were added according to the IP-One—Gq Kit purchased from Cisbio (part number 621PAPEJ) and incubated in the dark for 1 hr at room temperature. The plate was read on a Molecular Devices SpectraMax iD5 plate reader. The HTRF ratio was calculated from the raw data and graphed using GraphPad Prism to calculate an IC50 value for each compound.
The activity ranges are denoted as follows: “+++++” denotes antagonist activity <100 nM; “++++” denotes antagonist activity between 100 and 500 nM; “+++” denotes activity between 501 and 1000 nM; “++” denotes activity between 1001 and 2500 nM; and “+” denotes activity >2500 nM.

| SMILES | IC50 [nM] |
| --- | --- |
| CN(c1ccc(C(=O)N[C@H]2CC[C@@H](Nc3ccc(C#N)c(C(F)(F)F)c3)CC2)cc1)S(C)(=O)=O [1-18] | 100 to 500 |
| N#Cc1ccc(N[C@H]2CC[C@@H](NC(=O)c3c[nH]c4ccccc34)CC2)cc1C(F)(F)F [1-19] | < 100 |

Same assay, conditions: CHO cells stably expressing human MRGPRX2; versus 0.3 uM Cortistatin-14 agonist; IP-1 HTRF readout; read-out: MRGPR2 Antagonist Activity

| IC50 [nM] | SMILES |
| --- | --- |
| 1000 to 2500 | O=C(N[C@H]1CC[C@@H](Nc2cc(C3CC3)nc(C(F)(F)F)c2)CC1)c1ccc(F)cc1 [Example 8, N-(1S, 4S)-[4-[[2-cyclopropyl-6-(trifluoromethyl)-4-pyridyl]amino]cyclohexyl]-4-fluoro-benzamide] |
| 1000 to 2500 | CN(C)C(=O)N[C@H]1CC[C@@H](Nc2cc(C(F)(F)F)nc(C(F)(F)F)c2)CC1 [4-29] |
| 1000 to 2500 | O=C1Nc2c(C(=O)N[C@H]3CC[C@@H](Nc4cc(C(F)(F)F)nc(C(F)(F)F)c4)CC3)cccc2C1=O [4-7] |
| 100 to 500 | CCN(C)c1nc(N[C@H]2CC[C@@H](NC(=O)c3ccc(N(C)C)cc3)CC2)cc(C(F)(F)F)n1 [Example 11, 4-(dimethylamino)-N-(1S,4S)-[4-[[2-[ethyl(methyl)amino]-6-(trifluoromethyl)pyrimidin-4-yl]amino]cyclohexyl] benzamide] |
| 501 to 1000 | CN(C)c1nc(N[C@H]2CC[C@@H](NC(=O)c3ccc(F)cc3)CC2)cc(C(F)(F)F)n1 [1-8] |
| > 2500 | O=C(N[C@@H]1CCC[C@H](Nc2cc(C(F)(F)F)nc(C(F)(F)F)c2)C1)c1ccccc1 [Example 2, N-((1R,3S)-3-((2,6-bis(trifluoromethyl)pyridin-4-yl)amino)cyclohexyl)benzamide] |
| 100 to 500 | COc1cccc(C(=O)N[C@H]2CC[C@@H](Nc3cc(C(F)(F)F)nc(C(F)(F)F)c3)CC2)c1 [4-1] |
| 100 to 500 | O=C(N[C@H]1CC[C@@H](Nc2cc(C(F)(F)F)nc(C(F)(F)F)c2)CC1)c1ccc(N2CCS(=O)(=O)CC2)cc1 [4-38] |
| 1000 to 2500 | COc1ccc(C(=O)N[C@H]2CC[C@@H](Nc3cc(Nc4cccc(C)c4)nc(C(F)(F)F)c3)CC2)cc1 [Example 9, 4-methoxy-N-[4-[[2-(3-methylanilino)-6-(trifluoromethyl)-4-pyridyl]amino]cyclohexyl]benzamide] |
| 100 to 500 | COc1ccc(C(=O)N[C@H]2CC[C@@H](Nc3cc(C(F)(F)F)nc(C(F)(F)F)c3)CC2)cc1 [1-3] |
| 501 to 1000 | CN1CCCc2cc(C(=O)N[C@H]3CC[C@@H](Nc4cc(C(F)(F)F)nc(C(F)(F)F)c4)CC3)ccc21 [4-21] |
| 1000 to 2500 | O=C(N[C@H]1CC[C@@H](Nc2cc(C(F)(F)F)nc(C(F)(F)F)c2)CC1)c1nc2ccccc2[nH]1 [4-35] |
| 501 to 1000 | O=C(N[C@H]1CC[C@@H](Nc2cc(C(F)(F)F)nc(C(F)(F)F)c2)CC1)c1ccc(Cl)cc1 [4-14] |
| 100 to 500 | O=C(N[C@H]1CC[C@@H](Nc2cc(C(F)(F)F)nc(C(F)(F)F)c2)CC1)c1ccc2nccn2c1 [4-39] |
| 100 to 500 | CC(=O)Nc1cccc(C(=O)N[C@H]2CC[C@@H](Nc3cc(C(F)(F)F)nc(C(F)(F)F)c3)CC2)c1 [4-5] |
| 501 to 1000 | N=C(N)Nc1ccc(C(=O)N[C@H]2CC[C@@H](Nc3cc(C(F)(F)F)nc(C(F)(F)F)c3)CC2)cc1 [4-20] |

| IC50 [nM] | SMILES |
| --- | --- |
| 100 to 500 | CN(c1ccc(C(=O)N[C@H]2CC[C@@H](Nc3cc(C(F)(F)F)nc(C(F)(F)F)c3)CC2)cc1)S(C)(=O)=O [4-23] |
| 100 to 500 | CC(C#N)c1cccc(C(=O)N[C@H]2CC[C@@H](Nc3cc(C(F)(F)F)nc(C(F)(F)F)c3)CC2)c1 (some centres unmarked) [4-11] |
| 1000 to 2500 | CN1CCc2c(cccc2C(=O)N[C@H]2CC[C@@H](Nc3cc(C(F)(F)F)nc(C(F)(F)F)c3)CC2)C1 [4-34] |
| 1000 to 2500 | COc1ccc(C(=O)N[C@@H]2CCC[C@H](Nc3nc(C(F)(F)F)nc4c3CCC4)C2)cc1 [1-6] |
| 100 to 500 | O=C(N[C@H]1CC[C@@H](Nc2cc(C(F)(F)F)nc(C(F)(F)F)c2)CC1)c1ccc(-n2ccnc2)cc1 [4-25] |
| 1000 to 2500 | CN1CCCc2cccc(C(=O)N[C@H]3CC[C@@H](Nc4cc(C(F)(F)F)nc(C(F)(F)F)c4)CC3)c21 [4-26] |
| 1000 to 2500 | COc1cc(N[C@H]2CC[C@@H](NC(=O)c3ccc(F)cc3)CC2)nc(C(F)(F)F)n1 [1-7] |
| 1000 to 2500 | O=C(N[C@H]1CC[C@@H](Nc2cc(C(F)(F)F)cc(C(F)(F)F)c2)CC1)c1ccc(F)cc1 [Example 6, N-((1S,4S)-4-((3,5-bis(trifluoromethyl)phenyl)amino)cyclohexyl)-4-fluorobenzamide] |
| 100 to 500 | Nc1nc(C(=O)N[C@H]2CC[C@@H](Nc3cc(C(F)(F)F)nc(C(F)(F)F)c3)CC2)cs1 [4-27] |
| 501 to 1000 | O=C(N[C@H]1CC[C@@H](Nc2cc(C(F)(F)F)nc(C(F)(F)F)c2)CC1)c1cc2c([nH]1)CCCC2 [4-37] |
| 100 to 500 | O=C(N[C@H]1CC[C@@H](Nc2cc(C(F)(F)F)nc(C(F)(F)F)c2)CC1)c1ccc(F)cc1 [1-1] |
| > 2500 | COc1ccc(C(=O)N[C@@H]2CCC[C@H](Nc3cc(C(F)(F)F)nc(C(F)(F)F)c3)C2)cc1 [example 1, N-((1R,3S)-3-((2,6-bis(trifluoromethyl)pyridin-4-yl)amino)cyclohexyl)-4-methoxybenzamide] |
| 501 to 1000 | Cc1cc(C)n(-c2ccc(C(=O)N[C@H]3CC[C@@H](Nc4cc(C(F)(F)F)nc(C(F)(F)F)c4)CC3)cc2)n1 [4-24] |
| 1000 to 2500 | CN1CCN(C(=O)N[C@H]2CC[C@@H](Nc3cc(C(F)(F)F)nc(C(F)(F)F)c3)CC2)CC1 [4-36] |
| 100 to 500 | O=C(N[C@H]1CC[C@@H](Nc2cc(C(F)(F)F)nc(C(F)(F)F)c2)CC1)c1cccc(O)c1 [4-28] |

| SMILES | IC50 [nM] |
| --- | --- |
| N#Cc1ccc(N[C@H]2CC[C@@H](NC(=O)c3ccnc4[nH]ncc34)CC2)cc1C(F)(F)F [4-59] | < 100 |
| CNC(=O)c1ccc(C(=O)N[C@H]2CC[C@@H](Nc3ccc(C#N)c(C(F)(F)F)c3)CC2)cc1 [4-65] | < 100 |
| Cc1cc(N[C@H]2CC[C@@H](NC(=O)c3ccc(N(C)CC(F)F)cc3)CC2)cc(C(F)(F)F)c1C#N [5-7] | < 100 |
| N#Cc1ccc(N[C@H]2CC[C@@H](NC(=O)c3ccc(F)cc3)CC2)cc1C(F)(F)F [1-22] | 100 to 500 |
| Cn1ccc2c(C(=O)N[C@H]3CC[C@@H](Nc4ccc(C#N)c(C(F)(F)F)c4)CC3)ccnc21 [4-61] | < 100 |
| CNc1ccc(C(=O)N[C@H]2CC[C@@H](Nc3ccc(C#N)c(C(F)(F)F)c3)CC2)cc1 [4-47] | < 100 |
| CNc1cc(C(=O)N[C@H]2CC[C@@H](Nc3cc(C)c(C#N)c(C(F)(F)F)c3)CC2)ccn1 [5-4] | < 100 |
| Cc1cc2c(C(=O)N[C@H]3CC[C@@H](Nc4ccc(C#N)c(C(F)(F)F)c4)CC3)ccnc2[nH]1 [4-60] | < 100 |
| CNc1cc(C(=O)N[C@H]2CC[C@@H](Nc3ccc(C#N)c(C(F)(F)F)c3)CC2)ccn1 [4-66] | < 100 |
| Cc1cc(C(=O)N[C@H]2CC[C@@H](Nc3cc(C)c(C#N)c(C(F)(F)F)c3)CC2)cc(C)n1 [5-1] | < 100 |
| Cc1cc(N[C@H]2CC[C@@H](NC(=O)c3ccc(NCC(F)F)cc3)CC2)cc(C(F)(F)F)c1C#N [5-8] | < 100 |
| N#Cc1ccc(N[C@H]2CC[C@@H](NC(=O)c3cccc4ncsc34)CC2)cc1C(F)(F)F [1-24] | 1000 to 2500 |
| CN(C)c1cccc(C(=O)N[C@H]2CC[C@@H](Nc3ccc(C#N)c(C(F)(F)F)c3)CC2)c1 [1-16] | 100 to 500 |
| CCn1nccc1C(=O)N[C@H]1CC[C@@H](Nc2cc(C)c(C#N)c(C(F)(F)F)c2)CC1 [5-6] | < 100 |
| N#Cc1ccc(N[C@H]2CC[C@@H](NC(=O)c3c[nH]c4ccncc34)CC2)cc1C(F)(F)F [4-63] | < 100 |
| Cc1cc(N[C@H]2CC[C@@H](NC(=O)c3cn(CC(F)F)nc3C)CC2)cc(C(F)(F)F)c1C#N [5-10] | < 100 |
| N#Cc1ccc(N[C@H]2CC[C@@H](NC(=O)c3c[nH]c4ncccc34)CC2)cc1C(F)(F)F [4-57] | < 100 |
| Cc1cc(N[C@H]2CC[C@@H](NC(=O)c3ccc4nccn4c3)CC2)cc(C(F)(F)F)c1C#N [2-3] | < 100 |
| N#Cc1ccc(N[C@H]2CC[C@@H](NC(=O)c3c[nH]c4cnccc34)CC2)cc1C(F)(F)F [4-64] | < 100 |
| N#Cc1ccc(N[C@H]2CC[C@@H](NC(=O)c3ccc(NCC(F)F)cc3)CC2)cc1C(F)(F)F [4-53] | < 100 |
| N#Cc1ccc(N[C@H]2CC[C@@H](NC(=O)c3cn[nH]c3C(F)(F)F)CC2)cc1C(F)(F)F [4-44] | < 100 |
| N#Cc1ccc(N[C@H]2CC[C@@H](NC(=O)c3ccc(N4CCOCC4)cc3)CC2)cc1C(F)(F)F [1-25] | 100 to 500 |
| N#Cc1ccc(N[C@H]2CC[C@@H](NC(=O)c3ccc4[nH]ncc4c3)CC2)cc1C(F)(F)F [4-50] | < 100 |
